# Assay results reported in patent US20250346597A1, “CONDENSED HETEROCYCLIC COMPOUNDS AS INHIBITOR OF DIACYLGLYCEROL KINASES” (BEONE MEDICINES I GMBH, priority 2023, published 2025).
# Experiments:
# DGKζ = DGKζ (Homo sapiens (Human), UniProt Q13574); experiment: Biochemical DGK IC50 assay (ADP-Glo, lipid micelle substrate), DGKζ; details: full length DGKζ 0.5 nM, ATP 140 μM, DAG 80 μM
# In short: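 Full-length human His-TEV-tagged DGKζ, expressed in Sf9 cells and purified, was run at room temperature on DAG/PS lipid micelles in 50 mM HEPES, 10 mM MgCl2, 0.01 mM CaCl2 buffer. After 1 h reaction, ADP formed was detected by ADP-Glo luminescence. IC50s came from inhibition across increasing compound concentrations.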
# DGKα = DGKα (Homo sapiens (Human), UniProt P23743); experiment: Biochemical DGK IC50 assay (ADP-Glo, lipid micelle substrate), DGKα; details: full length DGKα […], ATP 140 μM, DAG 80 μM; also: full length DGKα 7.5 nM
# In short: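 Full-length human DGKα assayed by ADP-Glo with DAG/PS lipid micelle substrate at room temperature in 50 mM HEPES, 10 mM MgCl2, 0.01% BSA, 0.1 mM Na3VO4, 0.005% Tween-20, 0.01 mM CaCl2.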
# Chain of DGKα (P23743 whole entry): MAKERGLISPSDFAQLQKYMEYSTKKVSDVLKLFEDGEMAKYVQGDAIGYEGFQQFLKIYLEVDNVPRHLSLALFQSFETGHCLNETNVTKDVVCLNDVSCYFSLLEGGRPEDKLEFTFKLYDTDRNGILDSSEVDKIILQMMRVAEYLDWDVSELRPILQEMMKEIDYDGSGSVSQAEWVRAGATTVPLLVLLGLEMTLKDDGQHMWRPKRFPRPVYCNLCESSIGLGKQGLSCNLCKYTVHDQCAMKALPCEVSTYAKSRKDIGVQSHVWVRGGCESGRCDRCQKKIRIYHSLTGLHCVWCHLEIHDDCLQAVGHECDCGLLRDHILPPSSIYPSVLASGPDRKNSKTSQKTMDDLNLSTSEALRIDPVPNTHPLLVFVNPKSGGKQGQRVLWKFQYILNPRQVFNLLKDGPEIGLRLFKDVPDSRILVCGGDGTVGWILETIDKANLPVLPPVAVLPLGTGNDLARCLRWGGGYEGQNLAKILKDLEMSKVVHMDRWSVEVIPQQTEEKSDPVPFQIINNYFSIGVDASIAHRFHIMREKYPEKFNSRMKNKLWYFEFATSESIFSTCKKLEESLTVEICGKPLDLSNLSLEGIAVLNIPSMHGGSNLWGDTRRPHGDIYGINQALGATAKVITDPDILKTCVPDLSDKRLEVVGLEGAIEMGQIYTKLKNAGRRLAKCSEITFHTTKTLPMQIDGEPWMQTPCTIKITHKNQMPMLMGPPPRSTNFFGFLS
# Chain of DGKζ (Q13574 other isoform, or with tags, fused parts or gaps): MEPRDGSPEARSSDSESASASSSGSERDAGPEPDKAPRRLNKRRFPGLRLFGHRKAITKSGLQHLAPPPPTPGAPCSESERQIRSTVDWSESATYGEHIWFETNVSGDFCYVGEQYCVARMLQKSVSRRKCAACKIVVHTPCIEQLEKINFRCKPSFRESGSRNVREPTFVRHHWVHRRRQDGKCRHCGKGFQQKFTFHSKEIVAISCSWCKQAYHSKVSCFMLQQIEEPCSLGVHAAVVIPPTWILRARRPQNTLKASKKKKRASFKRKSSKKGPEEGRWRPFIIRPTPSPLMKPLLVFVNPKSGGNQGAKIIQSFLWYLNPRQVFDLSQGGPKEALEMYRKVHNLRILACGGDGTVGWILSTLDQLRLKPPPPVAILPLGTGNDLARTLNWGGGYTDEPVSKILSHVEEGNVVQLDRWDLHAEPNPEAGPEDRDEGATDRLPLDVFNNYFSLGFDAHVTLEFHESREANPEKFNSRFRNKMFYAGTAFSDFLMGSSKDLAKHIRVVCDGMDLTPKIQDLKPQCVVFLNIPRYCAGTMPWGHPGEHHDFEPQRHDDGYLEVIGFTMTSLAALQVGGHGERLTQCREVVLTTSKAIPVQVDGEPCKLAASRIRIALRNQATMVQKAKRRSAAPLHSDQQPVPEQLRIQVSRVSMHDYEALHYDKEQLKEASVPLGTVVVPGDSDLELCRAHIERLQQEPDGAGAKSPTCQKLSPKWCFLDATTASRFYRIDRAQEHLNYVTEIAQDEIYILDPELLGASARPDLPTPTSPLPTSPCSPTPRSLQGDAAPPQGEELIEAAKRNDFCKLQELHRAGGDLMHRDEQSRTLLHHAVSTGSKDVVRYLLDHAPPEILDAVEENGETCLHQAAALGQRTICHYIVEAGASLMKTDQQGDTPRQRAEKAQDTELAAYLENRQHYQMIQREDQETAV
SMILES,IC50 (DGKζ),IC50 (DGKα)
"CC[C@H]1CN(C(C)c2ccc(C(F)(F)F)c(C)c2)[C@H](CC)CN1c1cc(=O)n(C)c2cn(CC#N)nc12 (stereo partly drawn) [Compound A8, 2-(7-((2S,5R)-2,5-diethyl-4-(1-(3-methyl-4-(trifluoromethyl)phenyl)ethyl)piperazin-1-yl)-4-methyl-5-oxo-4,5-dihydro-2H-pyrazolo[4,3-b]pyridin-2-yl)acetonitrile]",229 nM,1000 nM
"CC[C@H]1CN(C(C)c2ccc(OC)cc2F)[C@H](CC)CN1c1cc(=O)n(C)c2cn(CC#N)nc12 (stereo partly drawn) [Compound A12, 2-(7-((2S,5R)-2,5-diethyl-4-(1-(2-fluoro-4-methoxyphenyl)ethyl)piperazin-1-yl)-4-methyl-5-oxo-4,5-dihydro-2H-pyrazolo[4,3-b]pyridin-2-yl)acetonitrile]",92 nM,440 nM
"CC[C@H]1CN(C(C)c2ccc(OC3CCOC3)cc2F)[C@H](CC)CN1c1cc(=O)n(C)c2cn(CC#N)nc12 (stereo partly drawn) [Compound A13, 2-(7-((2S,5R)-2,5-diethyl-4-(1-(2-fluoro-4-((tetrahydrofuran-3-yl)oxy)phenyl)ethyl)piperazin-1-yl)-4-methyl-5-oxo-4,5-dihydro-2H-pyrazolo[4,3-b]pyridin-2-yl)acetonitrile]",323 nM,838 nM
"CC[C@H]1CN(C(C)c2ccc(OC)cc2C)[C@H](CC)CN1c1cc(=O)n(C)c2cn(CC#N)nc12 (stereo partly drawn) [Compound A14, 2-(7-((2S,5R)-2,5-diethyl-4-(1-(4-methoxy-2-methylphenyl)ethyl)piperazin-1-yl)-4-methyl-5-oxo-4,5-dihydro-2H-pyrazolo[4,3-b]pyridin-2-yl)acetonitrile]",63 nM,8410 nM
"CC[C@H]1CN(C(C)c2ccc(COC3CCOCC3)cc2)[C@H](CC)CN1c1cc(=O)n(C)c2cn(CC#N)nc12 (stereo partly drawn) [Compound A15, 2-(7-((2S,5R)-2,5-diethyl-4-(1-(4-(((tetrahydro-2H-pyran-4-yl)oxy)methyl)phenyl)ethyl)piperazin-1-yl)-4-methyl-5-oxo-4,5-dihydro-2H-pyrazolo[4,3-b]pyridin-2-yl)acetonitrile]",219 nM,193 nM
"CC[C@H]1CN(C(C)c2ccc(COC3COC3)cc2)[C@H](CC)CN1c1cc(=O)n(C)c2cn(CC#N)nc12 (stereo partly drawn) [Compound A16, 2-(7-((2S,5R)-2,5-diethyl-4-(1-(4-((oxetan-3-yloxy)methyl)phenyl)ethyl)piperazin-1-yl)-4-methyl-5-oxo-4,5-dihydro-2H-pyrazolo[4,3-b]pyridin-2-yl)acetonitrile]",170 nM,204 nM
"CC[C@H]1CN(C(C)c2ccc(COC3CCOC3)cc2)[C@H](CC)CN1c1cc(=O)n(C)c2cn(CC#N)nc12 (stereo partly drawn) [Compound A17, 2-(7-((2S,5R)-2,5-diethyl-4-(1-(4-(((tetrahydrofuran-3-yl)oxy)methyl)phenyl)ethyl)piperazin-1-yl)-4-methyl-5-oxo-4,5-dihydro-2H-pyrazolo[4,3-b]pyridin-2-yl)acetonitrile]",315 nM,343 nM
"CC[C@H]1CN(C(C)c2ccc(COCCOC)cc2)[C@H](CC)CN1c1cc(=O)n(C)c2cn(CC#N)nc12 (stereo partly drawn) [Compound A18, 2-(7-((2S,5R)-2,5-diethyl-4-(1-(4-((2-methoxyethoxy)methyl)phenyl)ethyl)piperazin-1-yl)-4-methyl-5-oxo-4,5-dihydro-2H-pyrazolo[4,3-b]pyridin-2-yl)acetonitrile]",97 nM,249 nM
"CC[C@H]1CN(C(C)c2ccc(OC3COC3)cc2F)[C@H](CC)CN1c1cc(=O)n(C)c2cn(CC#N)nc12 (stereo partly drawn) [Compound A22, 2-(7-((2S,5R)-2,5-diethyl-4-(1-(2-fluoro-4-(oxetan-3-yloxy)phenyl)ethyl)piperazin-1-yl)-4-methyl-5-oxo-4,5-dihydro-2H-pyrazolo[4,3-b]pyridin-2-yl)acetonitrile]",465 nM,833 nM
"CC[C@H]1CN(C(C)c2ccc(CN3CC(F)(F)C3)cc2)[C@H](CC)CN1c1cc(=O)n(C)c2cn(CC#N)nc12 (stereo partly drawn) [Compound A27, 2-(7-((2S,5R)-4-(1-(4-((3,3-difluoroazetidin-1-yl)methyl)phenyl)ethyl)-2,5-diethylpiperazin-1-yl)-4-methyl-5-oxo-4,5-dihydro-2H-pyrazolo[4,3-b]pyridin-2-yl)acetonitrile]",202 nM,50 nM
"CC[C@H]1CN(C(C)c2ccc(OC3CC3)nc2)[C@H](CC)CN1c1cc(=O)n(C)c2cn(CC#N)nc12 (stereo partly drawn) [Compound A37, 2-(7-((2S,5R)-4-(1-(6-cyclopropoxypyridin-3-yl)ethyl)-2,5-diethylpiperazin-1-yl)-4-methyl-5-oxo-4,5-dihydro-2H-pyrazolo[4,3-b]pyridin-2-yl)acetonitrile]",202 nM,541 nM

# Second part, the compound after the results:
IC50 (DGKζ),IC50 (DGKα),SMILES
152 nM,129 nM,"CCc1ccc(C(C)N2C[C@H](CC)N(c3cc(=O)n(C)c4cn(CC#N)nc34)C[C@H]2CC)cc1 (stereo partly drawn) [Compound A7, 2-(7-((2S,5R)-2,5-diethyl-4-(1-(4-ethylphenyl)ethyl)piperazin-1-yl)-4-methyl-5-oxo-4,5-dihydro-2H-pyrazolo[4,3-b]pyridin-2-yl)acetonitrile]"
339 nM,2110 nM,"CC[C@H]1CN(C(C)c2ccc(OC)c(C)c2)[C@H](CC)CN1c1cc(=O)n(C)c2cn(CC#N)nc12 (stereo partly drawn) [Compound A9, 2-(7-((2S,5R)-2,5-diethyl-4-(1-(4-methoxy-3-methylphenyl)ethyl)piperazin-1-yl)-4-methyl-5-oxo-4,5-dihydro-2H-pyrazolo[4,3-b]pyridin-2-yl)acetonitrile]"
104 nM,162 nM,"CC[C@H]1CN(C(C)c2ccc(C(C)(F)F)cc2)[C@H](CC)CN1c1cc(=O)n(C)c2cn(CC#N)nc12 (stereo partly drawn) [Compound A10, 2-(7-((2S,5R)-4-(1-(4-(1,1-difluoroethyl)phenyl)ethyl)-2,5-diethylpiperazin-1-yl)-4-methyl-5-oxo-4,5-dihydro-2H-pyrazolo[4,3-b]pyridin-2-yl)acetonitrile]"
500 nM,79 nM,"CC[C@H]1CN(C(C)c2ccc(OCCOC)cc2)[C@H](CC)CN1c1cc(=O)n(C)c2cn(CC#N)nc12 (stereo partly drawn) [Compound A11, 2-(7-((2S,5R)-2,5-diethyl-4-(1-(4-(2-methoxyethoxy)phenyl)ethyl)piperazin-1-yl)-4-methyl-5-obo-4,5-dihydro-2H-pyrazolo[4,3-b]pyridin-2-yl)acetonitrile]"
312 nM,378 nM,"CC[C@H]1CN(C(C)c2ccc(OC)c(F)c2)[C@H](CC)CN1c1cc(=O)n(C)c2cn(CC#N)nc12 (stereo partly drawn) [Compound A20, 2-(7-((2S,5R)-2,5-diethyl-4-(1-(3-fluoro-4-methoxyphenyl)ethyl)piperazin-1-yl)-4-methyl-5-oxo-4,5-dihydro-2H-pyrazolo[4,3-b]pyridin-2-yl)acetonitrile]"
427 nM,100 nM,"CC[C@H]1CN(C(C)c2ccc(OC3(C)COC3)cc2)[C@H](CC)CN1c1cc(=O)n(C)c2cn(CC#N)nc12 (stereo partly drawn) [Compound A24, 2-(7-((2S,5R)-2,5-diethyl-4-(1-(4-((3-methyloxetan-3-yl)oxy)phenyl)ethyl)piperazin-1-yl)-4-methyl-5-oxo-4,5-dihydro-2H-pyrazolo[4,3-b]pyridin-2-yl)acetonitrile]"
4830 nM,10000 nM,"CC[C@H]1CN(C(C)c2ccc(CN(C)C)cc2)[C@H](CC)CN1c1cc(=O)n(C)c2cn(CC#N)nc12 (stereo partly drawn) [Compound A28, 2-(7-((2S,5R)-4-(1-(4-((dimethylamino)methyl)phenyl)ethyl)-2,5-diethylpiperazin-1-yl)-4-methyl-5-oxo-4,5-dihydro-2H-pyrazolo[4,3-b]pyridin-2-yl)acetonitrile]"
3930 nM,2600 nM,"CC[C@H]1CN(C(C)c2ccc(CNC)cc2)[C@H](CC)CN1c1cc(=O)n(C)c2cn(CC#N)nc12 (stereo partly drawn) [Compound A29, 2-(7-((2S,5R)-2,5-diethyl-4-(1-(4-((methylamino)methyl)phenyl)ethyl)piperazin-1-yl)-4-methyl-5-oxo-4,5-dihydro-2H-pyrazolo[4,3-b]pyridin-2-yl)acetonitrile]"
3690 nM,666 nM,"CC[C@H]1CN(C(C)c2ccc(-c3cn(C)nn3)cc2)[C@H](CC)CN1c1cc(=O)n(C)c2cn(CC#N)nc12 (stereo partly drawn) [Compound A30, 2-(7-((2S,5R)-2,5-diethyl-4-(1-(4-(1-methyl-1H-1,2,3-triazol-4-yl)phenyl)ethyl)piperazin-1-yl)-4-methyl-5-oxo-4,5-dihydro-2H-pyrazolo[4,3-b]pyridin-2-yl)acetonitrile]"
213 nM,615 nM,"CC[C@H]1CN(C(C)c2ccc(C(C)C)cc2)[C@H](CC)CN1c1cc(=O)n(C)c2cn(CC#N)nc12 (stereo partly drawn) [Compound A31, 2-(7-((2S,5R)-2,5-diethyl-4-(1-(4-isopropylphenyl)ethyl)piperazin-1-yl)-4-methyl-5-oxo-4,5-dihydro-2H-pyrazolo[4,3-b]pyridin-2-yl)acetonitrile]"
244 nM,183 nM,"CC[C@H]1CN(C(C)c2ccc(OC3CC3)cc2)[C@H](CC)CN1c1cc(=O)n(C)c2cn(CC#N)nc12 (stereo partly drawn) [Compound A32, 2-(7-((2S,5R)-4-(1-(4-cyclopropoxyphenyl)ethyl)-2,5-diethylpiperazin-1-yl)-4-methyl-5-oxo-4,5-dihydro-2H-pyrazolo[4,3-b]pyridin-2-yl)acetonitrile]"
45 nM,49 nM,CC[C@H]1CN([C@H](C)c2ccc(OC(C)C)cc2)[C@H](CC)CN1c1cc(=O)n(C)c2cn(CC#N)nc12 [Compound A33a]
770 nM,344 nM,CC[C@H]1CN([C@@H](C)c2ccc(OC(C)C)cc2)[C@H](CC)CN1c1cc(=O)n(C)c2cn(CC#N)nc12 [Compound A33b]
